Assay results as given in publication PMC7125889 (Bioorganic & Medicinal Chemistry, 2008).
Counter-ions that a name gives are not always drawn.

Assays:
NMDA receptors = test: NMDA receptor antagonist functional assay, intracellular calcium; format: cell-based; conditions: for times more potent than amantadine as NMDA receptor antagonist: vs amantadine
[1] = test system: bloodstream form T. brucei (strain 427); test: Trypanocidal activity against cultured bloodstream form T. brucei; conditions: concentrations up to 5 μg mL−1

SMILES | activity against cultured bloodstream form T. brucei [1] | further results
NCC12CC3CC(CC1C3)C2 [Compound 14, [(Tricyclo[3.3.1.0^3,7]non-3-yl)methyl]amine hydrochloride] | – | NMDA receptor antagonist activity (in words) (NMDA receptors; cerebellar granule neurons, highest concentration tested): no NMDA receptor antagonist activity
CC12CC3CC1(C)CC3(N)C2 [Compound 21, 3,7-Dimethyl(tricyclo[3.3.0.0^3,7]oct-1-yl)amine·HCl] | no significant activity | times more potent as NMDA receptor antagonist than 3-noradamantylamine, 7 (NMDA receptors; vs compound 7): 4 times
CC12CC3CC1(C)CC3(NCc1ccccc1)C2 [Compound 22a, N-Benzyl-3,7-dimethyl(tricyclo[3.3.0.0^3,7]oct-1-yl)amine hydrochloride] | no significant activity | –
CN(Cc1ccccc1)C12CC3(C)CC1CC3(C)C2 [Compound 23, N-Benzyl-N,3,7-trimethyl(tricyclo[3.3.0.0^3,7]oct-1-yl)amine hydrochloride] | no significant activity | –
CC(N)C12CC3(C)CC1CC3(C)C2 (stereo not drawn) [Compound 25, 1-(3,7-Dimethyltricyclo[3.3.0.0^3,7]oct-1-yl)ethylamine hydrochloride] | – | times more potent than amantadine as NMDA receptor antagonist (NMDA receptors; NMDA challenge): 2.5 times
CC12CC3CC1(C)CC3(N(Cc1ccccc1)Cc1ccccc1)C2 [Compound 27, N,N-Dibenzyl-3,7-dimethyl(tricyclo[3.3.0.0^3,7]oct-1-yl)amine hydrochloride] | no significant activity | –
CNC12CC3(C)CC1CC3(C)C2 [Compound 28, N-3,7-Trimethyl(tricyclo[3.3.0.0^3,7]oct-1-yl)amine hydrochloride] | no significant activity | –
CN(Cc1ccccc1)CC12CC3(C)CC1CC3(C)C2 [Compound 32, N-Benzyl-N-methyl[(3,7-dimethyltricyclo[3.3.0.0^3,7]oct-1-yl)methyl]amine hydrochloride] | no significant activity | –
CC12CC3CC1(C)CC3(CN1CCCCC1)C2 [Compound 34, N-[(3,7-Dimethyltricyclo[3.3.0.0^3,7]oct-1-yl)methyl]piperidine hydrochloride] | no significant activity | –
CC12CC3CC1(C)CC3(CNC(=N)N)C2 [Compound 35, N-[(3,7-dimethyltricyclo[3.3.0.0^3,7]oct-1-yl)methyl]guanidine hydrochloride] | without antiviral and trypanocidal activities | times more potent than amantadine as NMDA receptor antagonist (NMDA receptors; NMDA challenge): 10 times; times more potent than corresponding noradamantyl analog, 18 (NMDA receptors; vs compound 18): 3.5 times; times less potent than memantine as NMDA receptor antagonist (NMDA receptors; vs memantine, NMDA challenge): 5 times
CNCC12CC3(C)CC1CC3(C)C2 [Compound 36, N-Methyl[(3,7-dimethyltricyclo[3.3.0.0^3,7]oct-1-yl)methyl]amine hydrochloride] | no significant activity | –
